Data from the NIST ThermoML archive (doi:10.1021/acs.jced.9b00536).
Numbers after ± are expanded uncertainties.

Assay: refractive index (Na D-line) (dimensionless); wn = mass fraction of the nth substance listed
Conditions: 100 kPa, Liquid, Standard Abbe refractometry

[Na+].[OH-] [sodium hydroxide] + O
refractive index
Conditions | 283.15 K | 288.15 K | 293.15 K | 298.15 K | 303.15 K | 308.15 K
w1 = 0.2 | 1.3856 ± 0.002 | 1.3847 ± 0.002 | 1.3838 ± 0.002 | 1.3829 ± 0.002 | 1.382 ± 0.002 | 1.3811 ± 0.002
w1 = 0.21 | 1.3875 ± 0.002 | 1.3866 ± 0.002 | 1.3858 ± 0.002 | 1.3849 ± 0.002 | 1.384 ± 0.002 | 1.3832 ± 0.002
w1 = 0.22 | 1.3904 ± 0.002 | 1.3895 ± 0.002 | 1.3886 ± 0.002 | 1.3878 ± 0.002 | 1.3869 ± 0.002 | 1.386 ± 0.002
w1 = 0.23 | 1.3922 ± 0.002 | 1.3912 ± 0.002 | 1.3903 ± 0.002 | 1.3893 ± 0.002 | 1.3882 ± 0.002 | 1.3874 ± 0.002
w1 = 0.24 | 1.3941 ± 0.002 | 1.3932 ± 0.002 | 1.3923 ± 0.002 | 1.3914 ± 0.002 | 1.3905 ± 0.002 | 1.3896 ± 0.002
w1 = 0.25 | 1.3969 ± 0.002 | 1.3961 ± 0.002 | 1.3952 ± 0.002 | 1.3943 ± 0.002 | 1.3934 ± 0.002 | 1.3925 ± 0.002
w1 = 0.26 | 1.3991 ± 0.002 | 1.3982 ± 0.002 | 1.3974 ± 0.002 | 1.3965 ± 0.002 | 1.3956 ± 0.002 | 1.3947 ± 0.002
w1 = 0.27 | 1.4009 ± 0.002 | 1.4 ± 0.002 | 1.3991 ± 0.002 | 1.3982 ± 0.002 | 1.3973 ± 0.002 | 1.3964 ± 0.002
w1 = 0.28 | 1.4028 ± 0.002 | 1.4019 ± 0.002 | 1.4011 ± 0.002 | 1.4002 ± 0.002 | 1.3993 ± 0.002 | 1.3983 ± 0.002
w1 = 0.29 | 1.4053 ± 0.002 | 1.4044 ± 0.002 | 1.4035 ± 0.002 | 1.4026 ± 0.002 | 1.4017 ± 0.002 | 1.4008 ± 0.002
w1 = 0.3 | 1.4066 ± 0.002 | 1.4056 ± 0.002 | 1.4048 ± 0.002 | 1.4038 ± 0.002 | 1.4029 ± 0.002 | 1.402 ± 0.002
w1 = 0.31 | 1.4087 ± 0.002 | 1.4077 ± 0.002 | 1.4068 ± 0.002 | 1.4059 ± 0.002 | 1.405 ± 0.002 | 1.4041 ± 0.002
w1 = 0.32 | 1.4099 ± 0.002 | 1.4091 ± 0.002 | 1.4081 ± 0.002 | 1.4073 ± 0.002 | 1.4063 ± 0.002 | 1.4055 ± 0.002
w1 = 0.33 | 1.4115 ± 0.002 | 1.4107 ± 0.002 | 1.4097 ± 0.002 | 1.4088 ± 0.002 | 1.4079 ± 0.002 | 1.407 ± 0.002
w1 = 0.34 | 1.4141 ± 0.002 | 1.4132 ± 0.002 | 1.4123 ± 0.002 | 1.4114 ± 0.002 | 1.4105 ± 0.002 | 1.4096 ± 0.002
w1 = 0.35 | 1.416 ± 0.002 | 1.4151 ± 0.002 | 1.4142 ± 0.002 | 1.4133 ± 0.002 | 1.4123 ± 0.002 | –
w1 = 0.36 | 1.4175 ± 0.002 | 1.4167 ± 0.002 | 1.4158 ± 0.002 | 1.4148 ± 0.002 | 1.4139 ± 0.002 | –
w1 = 0.37 | 1.419 ± 0.002 | 1.4181 ± 0.002 | 1.4172 ± 0.002 | 1.4163 ± 0.002 | 1.4154 ± 0.002 | –
w1 = 0.38 | 1.4209 ± 0.002 | 1.42 ± 0.002 | 1.4191 ± 0.002 | 1.4182 ± 0.002 | 1.4173 ± 0.002 | –
w1 = 0.39 | 1.4226 ± 0.002 | 1.4217 ± 0.002 | 1.4208 ± 0.002 | 1.4199 ± 0.002 | 1.4189 ± 0.002 | –
w1 = 0.4 | 1.4241 ± 0.002 | 1.4232 ± 0.002 | 1.4223 ± 0.002 | 1.4214 ± 0.002 | 1.4205 ± 0.002 | –
w1 = 0.41 | 1.4252 ± 0.002 | 1.4243 ± 0.002 | 1.4234 ± 0.002 | 1.4225 ± 0.002 | 1.4215 ± 0.002 | –
w1 = 0.42 | 1.4269 ± 0.002 | 1.426 ± 0.002 | 1.425 ± 0.002 | 1.4241 ± 0.002 | 1.4231 ± 0.002 | –
w1 = 0.43 | 1.4281 ± 0.002 | 1.4272 ± 0.002 | 1.4263 ± 0.002 | 1.4254 ± 0.002 | 1.4245 ± 0.002 | –
w1 = 0.44 | 1.4293 ± 0.002 | 1.4284 ± 0.002 | 1.4274 ± 0.002 | 1.4265 ± 0.002 | 1.4255 ± 0.002 | –
w1 = 0.45 | 1.4303 ± 0.002 | 1.4295 ± 0.002 | 1.4286 ± 0.002 | 1.4276 ± 0.002 | 1.4267 ± 0.002 | –
w1 = 0.46 | 1.4321 ± 0.002 | 1.4312 ± 0.002 | 1.4303 ± 0.002 | 1.4293 ± 0.002 | 1.4284 ± 0.002 | –
w1 = 0.47 | 1.4332 ± 0.002 | 1.4323 ± 0.002 | 1.4314 ± 0.002 | 1.4304 ± 0.002 | 1.4294 ± 0.002 | –
w1 = 0.48 | 1.4347 ± 0.002 | 1.4338 ± 0.002 | 1.4329 ± 0.002 | 1.432 ± 0.002 | 1.4311 ± 0.002 | –
w1 = 0.49 | 1.4356 ± 0.002 | 1.4347 ± 0.002 | 1.4338 ± 0.002 | 1.4328 ± 0.002 | 1.4318 ± 0.002 | –
w1 = 0.5 | 1.4365 ± 0.002 | 1.4355 ± 0.002 | 1.4346 ± 0.002 | 1.4337 ± 0.002 | 1.4328 ± 0.002 | –
